Test results as given in US12064459B2, “Compositions and methods for improving skin health and for the treatment and prevention of diseases, disorders and conditions associated with pathogenic microbes” (priority 2019, dated 2024).
Values after ≈ are worked out from the molar mass of the structure shown. Like-named read-outs stand apart in the source and are kept apart here. Where a SMILES comes first, the peptide text is derived from it.

Columns and labels:
DBI001 = assay: Biolog phenotype MicroArrays: components enhancing function (efficacy) against fungal or bacterial pathogens; assay type: cell-based; settings: enhancing function of human-derived Janthinobacterium lividum
E. Coli ATCC25922 = assay: Antibiotic MIC tests; assay type: cell-based; settings: Escherichia coli
DB00118 = assay: Antibiotic MIC tests; assay type: cell-based, Janthinobacterium lividum; settings: strain DB00118
Description: (§1) The antibiotic resistance profile and MICs tests were performed using Janthinobacterium lividum grown from cultures purified and grown in vegitone LB broth.

DB02473 = assay: Antibiotic MIC tests; assay type: cell-based, Janthinobacterium lividum; settings: strain DB02473
Description: as §1

DB00121 = assay: Antibiotic MIC tests; assay type: cell-based, Janthinobacterium lividum; settings: strain DB00121
Description: as §1

DB02378 = assay: Antibiotic MIC tests; assay type: cell-based, Janthinobacterium lividum; settings: strain DB02378
Description: as §1

[1] = tested on: Janthinobacterium lividum strains; assay: Internal antibiotic resistance tests (BD BBL Sensi-Disc, zone of inhibition); assay type: cell-based; settings: all 5 strains; disc content per antibiotic (e.g. penicillin 10 IU); FIG. 5
Description: One Janthinobacterium lividum colony of 3-day old grown in 50% BHI agar was mixed well in 1 ml of 1×PBS buffer, diluted 10× and 100×, respectively. 200 μl of diluted Janthinobacterium lividum cells were evenly plated onto R2A/BHI agar plates in triplicate in 150 mm petri dishes. Antibiotic discs (BD BBL Sensi-Disc antimicrobial susceptibility test discs) were dispensed using a Disc dispenser (BD BBL Sensi-Disc Designer Dispenser System, 12-Place). Plates were incubated for 2-3 days at room temperature and imaged at the end of incubation.
The sensitivity of Janthinobacterium lividum to antibiotics is reflected by a clear zone of inhibition of Janthinobacterium lividum cells surrounding the antibiotic discs. The zone of inhibition was measured using ImageJ and was transformed into cm for analysis.

[2] = Janthinobacterium lividum, read-out: MIC

Row | Molecule | Concentration Range of Efficacy (DBI001) [mM] | other results
1 | CC(O)C(N)=O (racemic) [D,L-Lactamide] | 0.1 to 1 | 
2 | O=P(O)(O)OCC(O)CO (racemic) [D,L-α-Glycerol Phosphate] | 2 to 20 | 
3 | CC(O)CO (stereo not shown) [1,2-Propanediol] | 2 to 20 | 
4 | Nc1ncnc2c1ncn2C1CC(O)C(CO)O1 (stereo not shown) [2-Deoxy Adenosine] | 2 to 20 | 
5 | O=CC[C@H](O)[C@H](O)CO [2-Deoxy-DRibose] | 1 to 5 | 
6 | O=C[C@@H](O)[C@H](O[C@@H]1O[C@H](CO)[C@H](O)[C@H](O)[C@H]1O)[C@H](O)CO [3-0-β-D-Galactopyranosyl-D Arabinose] | 1 to 5 | 
7 | C[C@H](N)C(=O)N[C@@H](CCC(=O)O)C(=O)O [Ala-Glu] (H-Ala-Glu-OH) | 0.1 to 1 | 
8 | CC[C@H]1OC(=O)[C@H](C)[C@@H](O[C@H]2C[C@@](C)(OC)[C@@H](O)[C@H](C)O2)[C@H](C)[C@@H](O[C@@H]2O[C@H](C)C[C@H](N(C)C)[C@H]2O)[C@](C)(O)C[C@@H](C)CN(C)[C@H](C)[C@@H](O)[C@]1(C)O [Azithromycin] |  | MIC (E. Coli ATCC25922): 8 µg/mL (≈ 10.7 µM); MIC (DB00118; [2]): 8 µg/mL (≈ 10.7 µM); MIC (DB02473; [2]): 1 µg/mL (≈ 1.34 µM); MIC (DB00121; [2]): 0.5 µg/mL (≈ 0.668 µM); MIC (DB02378; [2]): 2 µg/mL (≈ 2.67 µM)
9 | CO/N=C(\C(=O)N[C@@H]1C(=O)N2C(C(=O)[O-])=C(C[N+]3(C)CCCC3)CS[C@H]12)c1csc(N)n1 [Cefepime] |  | MIC (E. Coli ATCC25922): < 0.063 µg/mL; MIC (DB00118; [2]): 0.25 µg/mL (≈ 0.52 µM)
10 | CO/N=C(\C(=O)N[C@@H]1C(=O)N2C(C(=O)O)=C(CSc3nc(=O)c(=O)[nH]n3C)CS[C@H]12)c1csc(N)n1 [Ceftriaxone] |  | MIC (E. Coli ATCC25922): < 0.063 µg/mL; MIC (DB00118; [2]): 0.5 µg/mL (≈ 0.902 µM); MIC (DB02473; [2]): 0.5 µg/mL (≈ 0.902 µM); MIC (DB00121; [2]): 0.25 µg/mL (≈ 0.451 µM); MIC (DB02378; [2]): 0.25 µg/mL (≈ 0.451 µM)
11 | CCC[C@@H]1C[C@@H](C(=O)N[C@@H]([C@H]2O[C@H](SC)[C@H](O)[C@@H](O)[C@H]2O)[C@H](C)Cl)N(C)C1 [Clindamycin] |  | MIC (E. Coli ATCC25922): < 64 µg/mL; MIC (DB00118; [2]): 32 µg/mL (≈ 75.3 µM); MIC (DB02473; [2]): 16 µg/mL (≈ 37.6 µM); MIC (DB00121; [2]): 16 µg/mL (≈ 37.6 µM); MIC (DB02378; [2]): 32 µg/mL (≈ 75.3 µM)
12 | OC[C@@H](O)C(O)[C@H](O)CO [D-Arabitol] | 1 to 5 | 
13 | OC[C@H]1O[C@@H](O[C@H]2[C@H](O)[C@@H](O)[C@H](O)O[C@@H]2CO)[C@H](O)[C@@H](O)[C@@H]1O [D-Cellobiose] | 2 to 20 | 
14 | O=C(CO)[C@@H](O)[C@H](O)[C@H](O)CO [D-Fractose] | 2 to 20 | 
15 | O=C(O)[C@H]1OC(O)[C@H](O)[C@@H](O)[C@@H]1O (stereo partly drawn) [D-Glucoronic Acid] | 2 to 20 | 
16 | N[C@@H](C(=O)O)[C@@H](O)[C@H](O)[C@H](O)CO [D-Glucosaminic Acid] | 2 to 20 | 
17 | O=P(O)(O)O[C@H]1O[C@H](CO)[C@@H](O)[C@H](O)[C@H]1O [D-Glucose-1-Phosphate] | 2 to 20 | 
18 | OC[C@H]1O[C@@](CO)(O[C@H]2O[C@H](CO)[C@@H](O)[C@H](O)[C@H]2O)[C@@H](O[C@H]2O[C@H](CO)[C@@H](O)[C@H](O)[C@H]2O)[C@@H]1O [D-Melezitose] | 1 to 5 | 
19 | OC[C@H]1O[C@H](OCC2O[C@@H](O)[C@H](O)[C@@H](O)[C@@H]2O)[C@H](O)[C@@H](O)[C@H]1O (stereo partly drawn) [D-Melibiose] | 2 to 20 | 

Row | Molecule | Concentration Range of Efficacy (DBI001) [mM] | other results
20 | O=C(O)[C@@H](O)[C@H](O)C(=O)O [D-Tartaric acid] | 1 to 5 | 
21 | OC[C@@H](O)[C@H](O)[C@H](O)[C@@H](O)CO [Dulcitol] | 2 to 20 | 
22 | OC[C@H](O)C(O)[C@@H](O)CO [L-Arabitol] | 1 to 5 | 
23 | C[C@H]1COc2c(N3CCN(C)CC3)c(F)cc3c(=O)c(C(=O)O)cn1c23 [Levofloxacin] |  | MIC (E. Coli ATCC25922): 0.063 µg/mL (≈ 0.174 µM); MIC (DB00118; [2]): 0.25 µg/mL (≈ 0.692 µM); MIC (DB02473; [2]): 0.25 µg/mL (≈ 0.692 µM); MIC (DB02378; [2]): 0.25 µg/mL (≈ 0.692 µM)
24 | OC[C@@H](O)[C@@H](O[C@H]1O[C@H](CO)[C@@H](O)[C@H](O)[C@H]1O)[C@H](O)[C@@H](O)CO [Maltitol] | 1 to 5 | 
25 | CN(C)c1ccc(O)c2c1C[C@H]1C[C@H]3[C@H](N(C)C)C(O)=C(C(N)=O)C(=O)[C@@]3(O)C(O)=C1C2=O [Minocycline] |  | MIC (E. Coli ATCC25922): 0.25 µg/mL (≈ 0.546 µM); MIC (DB02473; [2]): 0.25 µg/mL (≈ 0.546 µM); MIC (DB00121; [2]): < 0.063 µg/mL
26 | O=[N+]([O-])O [Nitrate] | 0.1 to 1 | 
27 | O=NO [Nitrite] | 0.1 to 1 | 
28 | OC[C@H]1O[C@H](OC[C@H]2OC(O)(CO)[C@@H](O)[C@@H]2O)[C@H](O)[C@@H](O)[C@@H]1O (stereo partly shown) [Palatinose] | 1 to 5 | 
29 | OC[C@@]12OC[C@@H](O1)[C@@H](O)[C@@H](O)[C@@H]2O [Sedoheptulosan] | 1 to 5 | 
30 | OC[C@H]1O[C@H](OC[C@H]2O[C@H](OC[C@H]3O[C@H](O[C@]4(CO)O[C@H](CO)[C@@H](O)[C@@H]4O)[C@H](O)[C@@H](O)[C@@H]3O)[C@H](O)[C@@H](O)[C@H]2O)[C@H](O)[C@@H](O)[C@H]1O [Stachyose] | 1 to 5 | 
31 | CN(C)[C@@H]1C(O)=C(C(N)=O)C(=O)[C@@]2(O)C(O)=C3C(=O)c4c(O)cccc4[C@@](C)(O)[C@H]3C[C@@H]12 [Tetracycline] |  | MIC (E. Coli ATCC25922): 1 µg/mL (≈ 2.25 µM); MIC (DB00118; [2]): 0.5 µg/mL (≈ 1.13 µM); MIC (DB02473; [2]): 0.5 µg/mL (≈ 1.13 µM); MIC (DB00121; [2]): 0.25 µg/mL (≈ 0.563 µM); MIC (DB02378; [2]): 0.5 µg/mL (≈ 1.13 µM)
32 | O=C(CO)[C@@H](O[C@H]1O[C@H](CO)[C@@H](O)[C@H](O)[C@H]1O)[C@H](O)[C@H](O)CO [Turanose] | 1 to 5 | 
33 | NC(N)=O [Urea] | 0.1 to 1 | 
34 | CC1(C)S[C@@H]2[C@H](NC(=O)[C@H](N)c3ccccc3)C(=O)N2[C@H]1C(=O)O [ampicillin] |  | sensitivity of Janthinobacterium lividum to antibiotic discs [1]: sensitive
35 | CC(=O)OCC1=C(C(=O)O)N2C(=O)[C@@H](NC(=O)Cc3cccs3)[C@H]2SC1 [cephalothin] |  | sensitivity of Janthinobacterium lividum to antibiotic discs [1]: sensitive
36 | OC[C@H]1O[C@@H]2O[C@H]3[C@H](O)[C@@H](O)[C@@H](O[C@H]4[C@H](O)[C@@H](O)[C@@H](O[C@H]5[C@H](O)[C@@H](O)[C@@H](O[C@H]6[C@H](O)[C@@H](O)[C@@H](O[C@H]7[C@H](O)[C@@H](O)[C@@H](O[C@H]8[C@H](O)[C@@H](O)[C@@H](O[C@H]9[C@H](O)[C@@H](O)[C@@H](O[C@H]1[C@H](O)[C@H]2O)O[C@@H]9CO)O[C@@H]8CO)O[C@@H]7CO)O[C@@H]6CO)O[C@@H]5CO)O[C@@H]4CO)O[C@@H]3CO [g-Cyclodextrin] | 1 to 5 | 
37 | OC[C@@H](O)[C@@H](O)CO [i-Erythritol] | 1 to 5 | 
38 | OC[C@H]1O[C@@H]2O[C@H]3[C@H](O)[C@@H](O)[C@@H](O[C@H]4[C@H](O)[C@@H](O)[C@@H](O[C@H]5[C@H](O)[C@@H](O)[C@@H](O[C@H]6[C@H](O)[C@@H](O)[C@@H](O[C@H]7[C@H](O)[C@@H](O)[C@@H](O[C@H]1[C@H](O)[C@H]2O)O[C@@H]7CO)O[C@@H]6CO)O[C@@H]5CO)O[C@@H]4CO)O[C@@H]3CO [α-Cyclodextrin] | 1 to 5 | 

Row | Molecule | Concentration Range of Efficacy (DBI001) [mM] | other results
39 | O=C1CCC(C(=O)O)O1 (stereo not drawn) [α-Hydroxy Glutaric Acid-g-Lactone] | 2 to 20 | 
40 | COC1OC(CO)C(O)C(O)C1O [α-Methyl-D-Galactoside] | 2 to 20 | 
41 | CO[C@H]1O[C@H](CO)[C@@H](O)[C@H](O)[C@H]1O [α-Methyl-D-Glucoside] | 1 to 5 | 
42 | COC1OC(CO)C(O)C(O)C1O [α-Methyl-D-Mannoside] | 1 to 5 | 
43 | OC[C@H]1O[C@@H]2O[C@H]3[C@H](O)[C@@H](O)[C@@H](O[C@H]4[C@H](O)[C@@H](O)[C@@H](O[C@H]5[C@H](O)[C@@H](O)[C@@H](O[C@H]6[C@H](O)[C@@H](O)[C@@H](O[C@H]7[C@H](O)[C@@H](O)[C@@H](O[C@H]8[C@H](O)[C@@H](O)[C@@H](O[C@H]1[C@H](O)[C@H]2O)O[C@@H]8CO)O[C@@H]7CO)O[C@@H]6CO)O[C@@H]5CO)O[C@@H]4CO)O[C@@H]3CO [β-Cyclodextrin] | 1 to 5 | 
44 | CO[C@@H]1O[C@H](CO)[C@@H](O)[C@H](O)[C@H]1O [β-Methyl-D-Galactoside] | 1 to 5 | 
45 | CO[C@@H]1O[C@H](CO)[C@@H](O)[C@H](O)[C@H]1O [β-Methyl-D-Glucoside] | 2 to 20 | 
46 | CO[C@@H]1O[C@H](C(=O)O)[C@@H](O)[C@H](O)[C@H]1O [β-Methyl-D-Glucuronic Acid] | 1 to 5 | 
47 | COC1OCC(O)C(O)C1O [β-Methyl-D-Xyloside] | 1 to 5 | 
48 | Chondroitin Sulfate C | 1 to 5 | 
49 | Glycogen | 1 to 5 | 
50 | Inulin | 1 to 5 | 
51 | Laminarin | 1 to 5 | 
52 | Maltotriose | 2 to 20 | 
53 | Mannan | 1 to 5 | 
54 | Neomycin |  | MIC (DB00118): 2 µg/mL; MIC (DB02473): 2 µg/mL; MIC (DB00121): 1 µg/mL; MIC (DB02378): 2 µg/mL
55 | Pectin | 1 to 5 | 
56 | Tween 40 | 2 to 20 | 
57 | dextrin | 1 to 5 | 
